Reference: patent publication US10227290B2, “Glycosphingolipids for use in modulating immune responses” (The Regents of the University of California, priority 2012, dated 2019)

Experiments:
[1] = system: cyclophosphamide (CY) induced diabetes; settings: NOD mouse model; Sharif et al.; cited from earlier work
[2] = target: T1, Mouse CD1d (mCD1d) tetramer / TCR of NKT cell hybridomas (Mus musculus, UniProt P11609); assay: Staining of NKT cell hybridomas with sphingolipid-loaded mCD1d tetramers (flow cytometry); type: binding; settings: mCD1d tetramer loaded with the sphingolipid
T1 construct: purchased NIH Tetramer Core Facility
T1 sequence (P11609 19-297 limits assumed): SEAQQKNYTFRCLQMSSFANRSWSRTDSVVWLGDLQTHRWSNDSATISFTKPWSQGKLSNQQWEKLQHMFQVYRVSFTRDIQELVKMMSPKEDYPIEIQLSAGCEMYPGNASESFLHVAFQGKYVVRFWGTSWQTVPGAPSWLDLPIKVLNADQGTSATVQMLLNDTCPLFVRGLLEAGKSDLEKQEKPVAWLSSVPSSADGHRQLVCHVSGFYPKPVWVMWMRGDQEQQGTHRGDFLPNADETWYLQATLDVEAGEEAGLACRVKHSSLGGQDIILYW
T1 sequence (P01887 21-119 partner): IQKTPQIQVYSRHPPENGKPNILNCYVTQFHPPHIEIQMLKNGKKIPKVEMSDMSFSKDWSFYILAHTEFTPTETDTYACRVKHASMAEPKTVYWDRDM
Procedure: FIGS. 4A-4C illustrate that α-GalCerBf binds CD1d and activates murine NKT cells in vitro. FIG. 4A: NKT cell hybridomas (see Example 4) were stained with anti-CD3 antibodies, and empty mCD1d tetramers or CD1d tetramers were loaded with α-GalCerBf or KRN7000. Flow cytometry plots representative of three independent experiments are shown. FIG. 4B: Hybridomas were cultured with BMDCs (bone marrow-derived dendritic cells) pre-pulsed with LPS or LPS+α-GalCerBf in the presence of control Ig or anti-CD1d blocking antibodies. IL-2 secretion was measured in supernatants 16 hr later. Data are representative of three independent experiments. FIG. 4C: Liver mononuclear cells were cultured with splenocytes plus increasing amounts of α-GalCerBf in the presence or absence of anti-CD1d blocking antibodies. IFN-γ secretion was measured in supernatants on day 5. Data are representative of three independent experiments.
The reagents used in Examples 4 and 5 for the immunology studies were as follows. PBS-57 loaded mCDld tetramers, which were used for mouse experiments, and unloaded mCD1d monomers were obtained from the NIH Tetramer Core Facility. For loading, monomers were incubated with KRN7000 or α-GalCerBf diluted in DMSO at 6 fold molar excess at 37° C. for 3 hrs in the presence of pepstatin, leupeptin, EDTA and TWEEN 20. Samples were concentrated using a 30K microconcentrator. Monomers were tetramerized by incubation with streptavidin-conjugated allophycocyanin (APC) (Molecular Probes, Inc., Eugene, Oreg.) at a 1:1 ratio. Staining was performed at room temperature for 1 hr. […] Viability was determined by staining cells with LIVE/DEAD fixable Aqua stain (Invitrogen Life Technologies, Carlsbad, Calif.) per manufacturer's instructions. […]
Synthetic CD1d tetramers were loaded with each sphingolipid, KRN7000 and α-GalCerBf), and the capability of the sphingolipid/CD1d-tetramer complex (hereafter called ‘tetramer’) to stain three NKT-cell-derived hybridomas was determined (see, e.g., Brossay et al., J. Immunol. […]

With `CCCCCCCCCCCCCCCCCCCCCCCCCC(=O)N[C@@H](CO[C@H]1O[C@H](CO)[C@H](O)[C@H](O)[C@H]1O)[C@H](O)[C@H](O)CCCCCCCCCCCCCC` [KRN7000] as the compound, how does the “Effect on cyclophosphamide (CY) induced diabetes” value [1] read?
Its value is “prevents”.

What about the “MFI (Median Fluorescence Intensity) of tetramer staining” value (“MFI (Median Fluorescence Intensity)” for short) ([2]; DN3A4-1.2 (1.2) hybridoma) of the same compound?
Its value is 2151.

What about the “MFI (Median Fluorescence Intensity)” value ([2]; DN3A4-1.4 (1.4) hybridoma) of the same compound?
The value was 683.

And the “MFI (Median Fluorescence Intensity)” value ([2]; N38-2C12 (2C12) hybridoma)?
The value was 8932.
